US20230027066A1 (Urovant Sciences GmbH, priority 2019, published 2023)

Assays:
[1] = 40-week extension study (52 weeks), adverse events
Excerpt: Approximately 500 men and women with overactive bladder who completed 12 weeks in the parent study were permitted to enroll, at approximately 110 study sites in the U.S.
Secondary endpoints were evaluation of CFB at Week 52 in average number of micturitions, Urge Urinary Incontinence (UUI) episodes, urgency episodes, and total urinary incontinence episodes. All CFB calculations used the parent study Baseline value.

[2] = Phase 3 study (75 mg), heart rate and blood pressure changes; assay type: in vivo, human
Excerpt: Study assessments of safety included adverse events, physical examinations, vital signs (and weight), and clinical laboratory tests
Categorical changes are based on 3 consecutive post-baseline visits and patients are counted in all applicable categories (e.g., if a patient has a 12 unit increase then that patient is counted in both ≥5 and ≥10 unit columns).
Blood Pressure assessments are taken in triplicate and averaged at each visit.

[3] = 3 consecutive post-baseline visits

For `O=C(Nc1ccc(C[C@@H]2CC[C@H]([C@H](O)c3ccccc3)N2)cc1)[C@@H]1CCc2nccc(=O)n21` [Vibegron, (6S)-N-[4-[[(2S,5R)−5-[(R)-hydroxy(phenyl)methyl]pyrrolidin−2-yl]methyl]phenyl]−4-oxo−7,8-dihydro−6H-pyrrolo[1,2-a]pyrimidine−6-carboxamide], the “Discontinued the study: Death” value ([1]; 40-Weeks arm) was 1 (1.1) n (%), the “Discontinued the study: Death” value ([1]; 52-Weeks arm) was 0 n (%) and the “SAEs resulting in death (not considered related by Investigator or Sponsor)” value ([1]; Overall groups) was 1 (0.4) n (%). The “Discontinued the study: Death” value ([1]; Overall groups, Randomized Set Extension) was 1 (0.4) n (%), the “Discontinued the study: Adverse Event” value ([1]; both, human, in vivo) was 4 (1.5) n (%) and the “Patients with at least one treatment-emergent adverse event” value ([1]; both, human, in vivo) was 171 (62.6) n (%). For the same molecule, the “Patients with at least one treatment-emergent serious AE” value ([1]; both, human, in vivo) was 9 (3.3) n (%), the “SAEs considered treatment-related by the investigator” value ([1]; both, human, in vivo) was 1 (0.4) n (%) and the “SAEs: Hospitalization” value ([1]; both, human, in vivo) was 7 (2.6) n (%). The “SAEs: Other serious criteria” value ([1]; both, human, in vivo) was 1 (0.4) n (%), the “Discontinued the study: Adverse Event” value ([1]; both, human, in vivo, 40 weeks) was 1 (1.1) n (%) and the “AE leading to discontinuation of study drug: Acute prerenal failure” value ([1]; both, human, in vivo, 52 weeks) was 0 n (%). The “AE leading to discontinuation of study drug: Amnesia” value ([1]; both, human, in vivo, 52 weeks) was 1 (0.4) n (%), the “AE leading to discontinuation of study drug: Any” value ([1]; both, human, in vivo, 52 weeks) was 4 (1.5) n (%) and the “AE leading to discontinuation of study drug: Aortic stenosis” value ([1]; both, human, in vivo, 52 weeks) was 0 n (%). The “AE leading to discontinuation of study drug: Atrial fibrillation” value ([1]; both, human, in vivo, 52 weeks) was 0 n (%), the “AE leading to discontinuation of study drug: Blood creatinine increased” value ([1]; both, human, in vivo, 52 weeks) was 1 (0.4) n (%) and the “AE leading to discontinuation of study drug: Blood urea increased” value ([1]; both, human, in vivo, 52 weeks) was 1 (0.4) n (%). For the same molecule, the “AE leading to discontinuation of study drug: Cardiac failure” value ([1]; both, human, in vivo, 52 weeks) was 0 n (%), the “AE leading to discontinuation of study drug: Cardiomyopathy” value ([1]; both, human, in vivo, 52 weeks) was 0 n (%) and the “AE leading to discontinuation of study drug: Chronic kidney disease” value ([1]; both, human, in vivo, 52 weeks) was 0 n (%). The “AE leading to discontinuation of study drug: Constipation” value ([1]; both, human, in vivo, 52 weeks) was 1 (0.4) n (%), the “AE leading to discontinuation of study drug: Diarrhea” value ([1]; both, human, in vivo, 52 weeks) was 1 (0.4) n (%) and the “AE leading to discontinuation of study drug: Dizziness” value ([1]; both, human, in vivo, 52 weeks) was 0 n (%). The “AE leading to discontinuation of study drug: Dry eye” value ([1]; both, human, in vivo, 52 weeks) was 0 n (%), the “AE leading to discontinuation of study drug: Dyspnoea” value ([1]; both, human, in vivo, 52 weeks) was 0 n (%) and the “AE leading to discontinuation of study drug: Haematuria” value ([1]; both, human, in vivo, 52 weeks) was 0 n (%). For the same molecule, the “AE leading to discontinuation of study drug: Headache” value ([1]; both, human, in vivo, 52 weeks) was 0 n (%), the “AE leading to discontinuation of study drug: Intervertebral disc degeneration” value ([1]; both, human, in vivo, 52 weeks) was 0 n (%) and the “AE leading to discontinuation of study drug: Mitral valve incompetence” value ([1]; both, human, in vivo, 52 weeks) was 0 n (%). The “AE leading to discontinuation of study drug: Osteoarthritis” value ([1]; both, human, in vivo, 52 weeks) was 0 n (%), the “AE leading to discontinuation of study drug: Pulmonary embolism” value ([1]; both, human, in vivo, 52 weeks) was 0 n (%) and the “AE leading to discontinuation of study drug: Sinus tachycardia” value ([1]; both, human, in vivo, 52 weeks) was 0 n (%). For the same molecule, the “AE leading to discontinuation of study drug: Tricuspid valve incompetence” value ([1]; both, human, in vivo, 52 weeks) was 0 n (%), the “AE: Anaemia” value ([1]; both, human, in vivo, 52 weeks) was 7 (2.6) n (%) and the “AE: Atrial fibrillation” value ([1]; both, human, in vivo, 52 weeks) was 0 n (%). The “AE: Back pain” value ([1]; both, human, in vivo, 52 weeks) was 6 (2.2) n (%), the “AE: Blood pressure increased” value ([1]; both, human, in vivo, 52 weeks) was 2 (0.7) n (%) and the “AE: Bronchitis” value ([1]; both, human, in vivo, 52 weeks) was 8 (2.9) n (%). The “AE: Constipation” value ([1]; both, human, in vivo, 52 weeks) was 10 (3.7) n (%), the “AE: Diarrhea” value ([1]; both, human, in vivo, 52 weeks) was 13 (4.8) n (%) and the “AE: Dizziness” value ([1]; both, human, in vivo, 52 weeks) was 4 (1.5) n (%). The “AE: Dry mouth” value ([1]; both, human, in vivo, 52 weeks) was 5 (1.8) n (%), the “AE: Fatigue” value ([1]; both, human, in vivo, 52 weeks) was 3 (1.1) n (%) and the “AE: Headache” value ([1]; both, human, in vivo, 52 weeks) was 15 (5.5) n (%). For the same molecule, the “AE: Hyperglycemia” value ([1]; both, human, in vivo, 52 weeks) was 7 (2.6) n (%), the “AE: Hypertension” value ([1]; both, human, in vivo, 52 weeks) was 24 (8.8) n (%) and the “AE: Hypotension” value ([1]; both, human, in vivo, 52 weeks) was 0 n (%). For the same molecule, the “AE: Musculoskeletal pain” value ([1]; both, human, in vivo, 52 weeks) was 6 (2.2) n (%), the “AE: Nasopharyngitis” value ([1]; both, human, in vivo, 52 weeks) was 13 (4.8) n (%) and the “AE: Nausea” value ([1]; both, human, in vivo, 52 weeks) was 10 (3.7) n (%). The “AE: Residual urine volume increased” value ([1]; both, human, in vivo, 52 weeks) was 7 (2.6) n (%), the “AE: Syncope” value ([1]; both, human, in vivo, 52 weeks) was 0 n (%) and the “AE: Tachycardia (Sinus Tachycardia)” value ([1]; both, human, in vivo, 52 weeks) was 1 (0.4) n (%). For the same molecule, the “AE: Upper respiratory tract infection” value ([1]; both, human, in vivo, 52 weeks) was 10 (3.7) n (%), the “AE: Urinary retention” value ([1]; both, human, in vivo, 52 weeks) was 3 (1.1) n (%) and the “AE: Urinary tract infection” value ([1]; both, human, in vivo, 52 weeks) was 18 (6.6) n (%). The “Discontinued the study: Adverse Event” value ([1]; both, human, in vivo, 52 weeks) was 3 (1.6) n (%), the “Diastolic BP categorical change from baseline ≥5 mm Hg, patients” value [2, 3] was 7.0% and the “Diastolic BP categorical change from baseline ≥10 mm Hg, patients” value [2, 3] was 1.3%. The “Diastolic BP categorical change from baseline ≥15 mm Hg, patients” value [2, 3] was 0.2%, the “Heart Rate categorical change from baseline ≥5 bpm, patients” value [2, 3] was 8.6% and the “Heart Rate categorical change from baseline ≥10 bpm, patients” value [2, 3] was 1.8%. The “Heart Rate categorical change from baseline ≥15 bpm, patients” value [2, 3] was 0.4%, the “Systolic BP categorical change from baseline ≥5 mm Hg, patients” value [2, 3] was 11.2% and the “Systolic BP categorical change from baseline ≥10 mm Hg, patients” value [2, 3] was 4.2%. The “Systolic BP categorical change from baseline ≥15 mm Hg, patients” value [2, 3] was 1.3%, the “Diastolic BP, 12-week change (95% CI)” value ([2]; Hypertensive at baseline) was −3.2 (−6.3, −0.1) mm Hg and the “Heart Rate, 12-week change” value ([2]; Hypertensive at baseline) was “+2.2 beats/minute”. For the same molecule, the “Systolic BP, 12-week change (95% CI)” value ([2]; Hypertensive at baseline) was −9.1 (−13.8, −4.4) mm Hg, the “Diastolic BP, 12-week change (95% CI)” value ([2]; Normotensive at baseline) was “+0.5 (−0.2, +1.1) mm Hg” and the “Heart Rate, 12-week change” value ([2]; Normotensive at baseline) was “+0.4 beats/minute”. For the same molecule, the “Systolic BP, 12-week change (95% CI)” value ([2]; Normotensive at baseline) was “+1.0(0, +2.0) mm Hg”, the “Diastolic BP, Mean Change from Baseline at Week 12 (SD)” value ([2]; Week 12, all patients) was 0.2 (7.43) mm Hg and the “Heart Rate, Mean Change from Baseline at Week 12” value ([2]; Week 12, all patients) was 0.5 beats/minute. For the same molecule, the “Systolic BP, Mean Change from Baseline at Week 12” value ([2]; Week 12, all patients) was 0.2 mm Hg.
